For this experiment, the target named is T1, PIK3CB/PIK3R1 (p110β/p85α) (Homo sapiens, UniProt P42338).
T1 construct: purchased Thermo Fisher Scientific (Life Technologies) SelectScreen
The experiment is described as follows: SelectScreen Adapta. The class given is biochemical. The method, boiled down: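 SelectScreen broad panel; activity (Z'LYTE, Adapta) plus binding formats. ATP: Km app for CSF1R Z'LYTE; 10 for CAMK1 Adapta. Readout = % per kinase.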

T1 sequence (P42338 whole entry): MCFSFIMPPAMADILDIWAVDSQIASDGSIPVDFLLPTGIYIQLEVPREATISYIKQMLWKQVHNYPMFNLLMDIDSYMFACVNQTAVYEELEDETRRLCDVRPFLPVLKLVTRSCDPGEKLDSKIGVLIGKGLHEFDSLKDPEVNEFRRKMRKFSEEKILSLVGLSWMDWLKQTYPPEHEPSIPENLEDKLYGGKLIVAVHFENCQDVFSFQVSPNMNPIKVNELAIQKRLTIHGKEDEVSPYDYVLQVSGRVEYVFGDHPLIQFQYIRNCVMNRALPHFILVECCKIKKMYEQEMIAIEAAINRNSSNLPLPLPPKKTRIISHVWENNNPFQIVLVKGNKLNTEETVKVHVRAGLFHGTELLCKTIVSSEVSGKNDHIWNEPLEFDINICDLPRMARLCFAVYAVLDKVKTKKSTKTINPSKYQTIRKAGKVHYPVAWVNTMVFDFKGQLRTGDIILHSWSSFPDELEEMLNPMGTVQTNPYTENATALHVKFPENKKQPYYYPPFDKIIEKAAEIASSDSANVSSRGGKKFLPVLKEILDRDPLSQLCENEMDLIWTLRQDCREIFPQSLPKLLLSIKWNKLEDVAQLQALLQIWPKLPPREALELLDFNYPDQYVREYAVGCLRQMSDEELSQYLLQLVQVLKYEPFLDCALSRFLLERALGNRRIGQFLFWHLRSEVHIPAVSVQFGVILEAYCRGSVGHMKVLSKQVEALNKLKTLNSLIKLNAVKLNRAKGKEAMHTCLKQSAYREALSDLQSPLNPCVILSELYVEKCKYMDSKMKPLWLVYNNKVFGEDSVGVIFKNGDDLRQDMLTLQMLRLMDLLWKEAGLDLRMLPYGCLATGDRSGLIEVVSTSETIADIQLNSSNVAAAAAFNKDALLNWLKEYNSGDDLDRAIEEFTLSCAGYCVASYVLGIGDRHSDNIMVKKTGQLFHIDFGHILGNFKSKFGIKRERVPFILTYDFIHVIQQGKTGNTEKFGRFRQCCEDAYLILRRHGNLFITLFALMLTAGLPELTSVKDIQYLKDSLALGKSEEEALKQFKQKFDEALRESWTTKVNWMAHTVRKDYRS
T1 sequence (P27986 whole entry partner): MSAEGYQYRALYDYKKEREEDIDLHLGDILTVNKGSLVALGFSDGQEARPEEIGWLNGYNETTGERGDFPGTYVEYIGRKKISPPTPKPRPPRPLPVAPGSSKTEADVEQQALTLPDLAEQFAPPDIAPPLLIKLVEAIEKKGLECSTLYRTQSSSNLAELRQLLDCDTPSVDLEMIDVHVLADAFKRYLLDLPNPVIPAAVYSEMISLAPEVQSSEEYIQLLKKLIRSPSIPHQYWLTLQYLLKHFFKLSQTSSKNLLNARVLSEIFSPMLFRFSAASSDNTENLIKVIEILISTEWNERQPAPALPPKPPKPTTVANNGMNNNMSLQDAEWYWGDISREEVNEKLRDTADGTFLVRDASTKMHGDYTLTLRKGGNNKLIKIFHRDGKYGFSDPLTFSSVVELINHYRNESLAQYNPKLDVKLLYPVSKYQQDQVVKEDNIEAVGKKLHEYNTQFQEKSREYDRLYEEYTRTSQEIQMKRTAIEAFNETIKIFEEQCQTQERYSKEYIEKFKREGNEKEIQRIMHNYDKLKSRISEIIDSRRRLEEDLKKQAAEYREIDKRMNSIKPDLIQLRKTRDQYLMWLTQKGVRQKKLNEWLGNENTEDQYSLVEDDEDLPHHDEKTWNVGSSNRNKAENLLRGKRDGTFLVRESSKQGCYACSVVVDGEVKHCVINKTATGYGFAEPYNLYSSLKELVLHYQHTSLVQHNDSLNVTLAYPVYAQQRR

With `CN(C(=O)CN1CCOCC1)c1ccc2sc3c(-c4cccc5c(=O)cc(N6CC7CCC(C6)O7)oc45)cccc3c2c1` [NU5455], the inhibition at 1 µM was -3.8%.

For orientation: inhibition means the drop in the measured response relative to a control, in per cent.

The record behind these values is article PMC6934184, “Selective DNA-PKcs inhibition extends the therapeutic index of localized radiotherapy and chemotherapy” (The Journal of Clinical Investigation, 2019).
